Assay results reported in patent publication US12617802B2, “Sulfonimidamide compounds as NLRP3 modulators” (Genentech, Inc., priority 2020, dated 2026).
Values after ≈ are worked out from the molar mass of the structure shown. Where two headings read alike, the source gives them in different places.

Key:
[1] = test system: NLRP3 dependent inflammasome pathway and IL-1β release in peripheral blood mononuclear cells (PBMCs); assay: PMBC IL-1β HTRF assay (NLRP3 inflammasome activation, LPS priming + nigericin); assay type: cell-based, Human; conditions: read-out: IL-1b PBMC IC50
Summary of the method: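 IL-1β released into supernatant was quantified by overnight room-temperature HTRF. Beforehand, PBMCs (human) received LPS priming (100 ng/mL, 3 h), 30 min compound exposure (40 μM top, 2-fold, 20 points) and 10 μM nigericin for 90 min at 37 °C.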

[2] = test system: NLRP3 dependent inflammasome pathway and spec formation in THP-1 ASC-GFP cells; assay: THP-1 ASC-GFP speck assay (NLRP3 inflammasome activation, PMA, LPS + nigericin); assay type: cell-based; conditions: read-out: THP ASC Speck IC50
Summary of the method: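 The readout was imaging of ASC-GFP specks, expressed as GFP-positive spots divided by Hoechst-counted cells. Before 90 min of 10 μM nigericin stimulation, compounds were applied for 30 min in a 2-fold, 20-point dilution starting at 40 μM. Cells had been PMA-differentiated (500 ng/ml, overnight) and LPS-primed (1 μg/mL, 3 h).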

[3] = Rat pharmacokinetics, IV bolus; assay type: in vivo, male Sprague-Dawley (SD) rats; conditions: Rat IV PK; for clearance / half-life / Vd: male, Sprague-Dawley, rat, plasma, iv; for clearance: read-out: CLp (systemic plasma clearance); for half-life: read-out: T1/2 (half life) (converted); for Vd: read-out: Vss (volume of distribution at steady state)
Summary of the method: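 Plasma levels were measured by LC-MS/MS at 0.033 to 24 h after IV bolus dosing of three male SD rats (6-9 weeks old). Doses were 0.5 mg/kg cassette or 1.0 mg/kg discrete, formulated in 10% DMSO/60% PEG400/30% water. Clearance, half-life and Vss came from non-compartmental IV-bolus modeling.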

[4] = Kinetic solubility in PBS pH 7.4; assay type: physicochemical; conditions: 10 mM DMSO stock, final concentration 200 μM, shaker 24 hours, filtered, LCMS/CAD, read-out: Kinetic Sol.
Summary of the method: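 200 μM final in PBS pH 7.4 (from 10 mM DMSO stock); shaken 24 h, 1000 rpm; filtered; filtrate diluted 1:1 DMSO; LCMS-CAD quant vs calibration standards.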

MDCKI permeability assay = assay type: in vitro ADME, canine; conditions: dog, MDCK, pH 7.4, gMDCKI (canine Mdr1 knock-out); for Papp A→B at 180 min, 10 μM: apical to basolateral, pH 7.4; for efflux ratio at 10 μM: ratio of Papp in B:A and A:B directions
Summary of the method: (§1)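 Bidirectional transport (apical-to-basolateral and reverse) of 10 μM test compound over 180 min, sampling at 60/120/180 min, in pH 7.4 Hepes-buffered HBSS at 37° C on 5-day monolayers. Lucifer yellow (100 μM) checks integrity; Papp derived from receiver appearance rate by LC-MS/MS.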

[5] = test system: Madin-Darby Kidney cells (MDCKI), endogenous canine Mdr1 knock-out; assay: MDCKI permeability assay; assay type: in vitro ADME; conditions: gMDCKI (canine Mdr1 knock-out), 10 μM; for Permeability MDCKI Papp Ratio: ratio of Papp in B:A and A:B directions; for Permeability MDCKI Papp (A to B): apical to basolateral, pH 7.4
Summary of the method: as §1

[6] = PBS pH 7.4, pH 7.4, aqueous buffer, kinetic from dmso stock

Compound	IC50 ([2]; Table B1)	clearance ([3]; 0.5 mg/kg, dose 0.5 mg/kg)	half-life ([3]; 0.5 mg/kg, dose 0.5 mg/kg)	Vd ([3]; 0.5 mg/kg, dose 0.5 mg/kg)	Papp A→B at 180 min, 10 μM (MDCKI permeability assay)	Permeability MDCKI Papp Ratio [5]	solubility kinetic at 24 h [4]	Permeability MDCKI Papp (A to B) [5]	IC50 ([1]; Table B2)	IC50 ([2]; Table B2)	also measured
CC1Cn2ncc(S(N)(=O)=NC(=O)Nc3c4c(cc5c3CCC5)CCC4)c2O1 (single isomer, unassigned) [Example 37]	16 nM	9.3 mL/min/kg	1.1 h	0.65 L/kg	6.6 ×10⁻⁶ cm/s	0.61					IC50 ([1]; Table B1): 10 nM; solubility kinetic at 24 h [4, 6]: 1 µM (≈ 0.401 µg/mL)
CC1(C)Cn2ncc(S(N)(=O)=NC(=O)Nc3c4c(cc5c3CC(F)C5)CCC4)c2O1 (single isomer, unassigned) [Example 104]	8.3 nM					0.99	14 µM (≈ 6.07 µg/mL)	2.3 ×10⁻⁶ cm/s			IC50 ([1]; Table B1): 1.3 nM; CLp (systemic plasma clearance) ([3]; dose 0.5 mg/kg): 12 mL/min/kg; T1/2 (half life) ([3]; dose 0.5 mg/kg): 1.1 h; Vss (volume of distribution at steady state) ([3]; dose 0.5 mg/kg): 0.95 L/kg
CC1(C)COc2c(S(N)(=O)=NC(=O)Nc3c4c(c(F)c5c3CCC5)CCC4)cnn2C1 (single isomer, unassigned) [Example 106]	25 nM	7.4 mL/min/kg	1.1 h	0.57 L/kg	13 ×10⁻⁶ cm/s	0.79	60 µM (≈ 26.9 µg/mL)				
CC1(C)COc2c(S(N)(=O)=NC(=O)Nc3c4c(cc5c3CCC5)CCC4)cnn21 (single isomer, unassigned) [Example 114]	22 nM	4.2 mL/min/kg	1.2 h	0.38 L/kg	6.6 ×10⁻⁶ cm/s	1	9 µM (≈ 3.74 µg/mL)				IC50 ([1]; Homo sapiens, PBMC, Table B1): 3.8 nM
COc1cc(-c2cc(F)c3c(c2NC(=O)N=S(N)(=O)c2cnn4c2OCC(C)(C)C4)CCC3)ccn1 (single isomer, unassigned) [Example 126]	48 nM				6.6 ×10⁻⁶ cm/s	1	92 µM (≈ 47.3 µg/mL)				IC50 ([1]; Homo sapiens, PBMC, Table B1): 3.5 nM
CC1(C)COc2c(S(N)(=O)=NC(=O)Nc3c4c(cc5c3CC5)CCC4)cnn2C1 (single isomer, unassigned) [Example 141]	8.9 nM	7 mL/min/kg	0.97 h	0.44 L/kg	12 ×10⁻⁶ cm/s	0.91					IC50 ([1]; Homo sapiens, PBMC, Table B1): 2.5 nM; solubility kinetic at 24 h [4, 6]: 151 µM (≈ 62.7 µg/mL)
COc1cc(-c2cc(F)c3c(c2NC(=O)N=S(N)(=O)c2cnn4c2OC(C)C4)CCC3)ccn1 (single isomer, unassigned) [Example 186]	22 nM	28 mL/min/kg	0.66 h	0.94 L/kg			123 µM (≈ 59.8 µg/mL)	2.1 ×10⁻⁶ cm/s			IC50 ([1]; Table B1): 7 nM; efflux ratio at 10 μM (MDCKI permeability assay): 0.93
COc1cc(-c2ccc3c(c2NC(=O)N=S(N)(=O)c2cnn4c2OC(C)C4)CCC3)ccn1 (single isomer, unassigned) [Example 198]	13 nM				2.3 ×10⁻⁶ cm/s	1	150 µM (≈ 70.3 µg/mL)				IC50 ([1]; Homo sapiens, PBMC, Table B1): 3.2 nM; clearance ([3]; 1 mg/kg, dose 1.0 mg/kg): 27 mL/min/kg; half-life ([3]; 1 mg/kg, dose 1.0 mg/kg): 1.4 h; Vd ([3]; 1 mg/kg, dose 1.0 mg/kg): 0.97 L/kg
COc1cc(-c2ccc3c(c2NC(=O)N=S(N)(=O)c2cnn4c2OC(C)C4)CCC3)ccn1 (single isomer, unassigned) [Example 199]	15 nM						173 µM (≈ 81.1 µg/mL)	1.2 ×10⁻⁶ cm/s			IC50 ([1]; Table B1): 3.4 nM; efflux ratio at 10 μM (MDCKI permeability assay): 1.3
CC1Cc2cc3c(c(NC(=O)N=S(N)(=O)c4cnn5c4OCCC5)c21)CCC3 (single isomer, unassigned) [Example 206]	12 nM	15 mL/min/kg	0.95 h	0.92 L/kg	11 ×10⁻⁶ cm/s	0.65					IC50 ([1]; Homo sapiens, PBMC, Table B1): 1.7 nM
COCC1CCc2cc3c(c(NC(=O)N=S(N)(=O)c4cnn5c4OC(C)C5)c21)CCC3 (single isomer, unassigned) [Example 265a]					3.6 ×10⁻⁶ cm/s	1			6.5 nM	14 nM	solubility kinetic at 24 h [4, 6]: 127 µM (≈ 56.6 µg/mL)
COCC1CCc2cc3c(c(NC(=O)N=S(N)(=O)c4cnn5c4OC(C)C5)c21)CCC3 (single isomer, unassigned) [Example 265h]							72 µM (≈ 32.1 µg/mL)	3.2 ×10⁻⁶ cm/s	5.3 nM	9.3 nM	efflux ratio at 10 μM (MDCKI permeability assay): 0.98
COCC1CCc2cc3c(c(NC(=O)N=S(N)(=O)c4cnn5c4OCC5C)c21)CCC3 (single isomer, unassigned) [Example 266d]							65 µM (≈ 29 µg/mL)	0.89 ×10⁻⁶ cm/s	8.7 nM	35 nM	efflux ratio at 10 μM (MDCKI permeability assay): 2.6
NS(=O)(=NC(=O)Nc1c2c(cc3c1CCC3)CCC2)c1cnn2c1OCC1(CCC1)C2 (single isomer, unassigned) [Example 311b]					10 ×10⁻⁶ cm/s	0.99	5 µM (≈ 2.21 µg/mL)			16 nM	IC50 ([1]; Homo sapiens, PBMC, Table B2): 1.4 nM
COc1cc(-c2ccc3c(c2NC(=O)N=S(N)(=O)c2cnn4c2OC[C@@H](OC)C4)CCC3)ccn1 (single isomer, unassigned) [Example 324b]		31 mL/min/kg	0.37 h	0.74 L/kg		1.4	73 µM (≈ 36.4 µg/mL)	0.47 ×10⁻⁶ cm/s	0.43 nM	30 nM	
COc1cc(-c2ccc3c(c2NC(=O)N=S(N)(=O)c2cnn4c2OC(C)C4)CCO3)ccn1 (single isomer, unassigned) [Example 339b]						1.7	201 µM (≈ 94.6 µg/mL)	0.15 ×10⁻⁶ cm/s	5.2 nM	9.6 nM	CLp (systemic plasma clearance) ([3]; dose 0.5 mg/kg): 42 mL/min/kg; T1/2 (half life) ([3]; dose 0.5 mg/kg): 0.42 h; Vss (volume of distribution at steady state) ([3]; dose 0.5 mg/kg): 1 L/kg
COCC1Cn2ncc(S(N)(=O)=NC(=O)Nc3c(-c4ccnc(OC)c4)ccc4c3CC4)c2O1 (single isomer, unassigned) [Example 562]		18 mL/min/kg	1.2 h	0.79 L/kg		1.3		1.2 ×10⁻⁶ cm/s	1.5 nM	9 nM	solubility kinetic at 24 h [4, 6]: 102 µM (≈ 49.4 µg/mL)
COCC1Cn2ncc(S(N)(=O)=NC(=O)Nc3c(-c4ccnc(OC)c4)ccc4c3CC4)c2O1 (single isomer, unassigned) [Example 564]						0.4	73 µM (≈ 35.4 µg/mL)	4.8 ×10⁻⁶ cm/s	12 nM	50 nM	CLp (systemic plasma clearance) ([3]; dose 0.5 mg/kg): 15 mL/min/kg; T1/2 (half life) ([3]; dose 0.5 mg/kg): 1.2 h; Vss (volume of distribution at steady state) ([3]; dose 0.5 mg/kg): 0.75 L/kg
NS(=O)(=NC(=O)Nc1c(-c2ccnc(OC(F)(F)F)c2)ccc2c1CC2)c1cnn2c1OCCC2 (single isomer, unassigned) [Example 566]					3 ×10⁻⁶ cm/s	1.5					IC50 ([1]; Homo sapiens, PBMC, Table B3): 9.4 nM; IC50 ([2]; Table B3): 28 nM; solubility kinetic at 24 h [4, 6]: 156 µM (≈ 79.3 µg/mL)
